Measurements as given in the SangsterLogP compilation.

Assay: method code SF-AS, from DOI: 10.1006/pest.1994.1057

| Compound | logP |
| --- | --- |
| O=[N+]([O-])/C=C1\NCCN1Cc1ccc(Cl)nc1 | -0.19 |
| O=[N+]([O-])C=C1NCCN1Cc1ccc(Cl)cc1 | 0.99 |
| N#CN=C1NCCN1Cc1ccc(Cl)nc1 | 0.77 |
| O=[N+]([O-])N=C1NCCN1Cc1cccnc1 | -0.19 |
| O=[N+]([O-])/C=C1/NCCN1Cc1cccnc1 | -1.02 |
| Cc1ccc(CN2CCNC2=C[N+](=O)[O-])cn1 | -0.59 |
| O=[N+]([O-])C=C1NCCN1Cc1ccccn1 | -0.87 |
| O=[N+]([O-])/C=C1\NCCN1Cc1ccccc1 | 0.33 |
| O=[N+]([O-])C=C1NCCN1CCc1ccc(Cl)nc1 | -0.23 |
| O=[N+]([O-])C=C1NCCN1c1ccc(Cl)nc1 | -0.23 |
| CN1CCN(Cc2ccc(Cl)nc2)C1=N[N+](=O)[O-] | 0.26 |
| O=[N+]([O-])C=C1NCCN1Cc1ccncc1 | -1.05 |
| O=[N+]([O-])C=C1SCCN1Cc1ccc(Cl)nc1 | 0.65 |
| O=[N+]([O-])C=C1NCCCN1Cc1ccc(Cl)nc1 | -0.62 |
